Molecules are shown by their SMILES.

These results are taken from patent publication US10351546B2, “Pyridin-3-yl acetic acid derivatives as inhibitors of human immunodeficiency virus replication” (priority 2015, dated 2019).

One assay relates to NL-RLuc virus. The assay is described as follows: Inhibition of HIV replication (NL-RLuc luciferase reporter virus in MT-2 cells). It is filed as cell-based. The following applies: Human immunodeficiency virus 1, MT2, 120 h, read-out: Activity. The procedure, abridged:
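The read-out is Renilla luciferase expressed by replication-competent NL-RLuc (nef partly replaced), measured 5 days after infection of MT-2 cells grown with compound dilutions in 10% FBS RPMI. Median effect equation gives EC50 from ≥2 runs; A ≤100 nM, B 100 nM–1 uM, C >1 uM.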
As to `Cc1cc(F)ccc1CN1CCc2cc(-c3c(Cn4ncnc4C)nc(C)c([C@H](OC(C)(C)C)C(=O)O)c3N3CCC(C)(C)CC3)ccc2C1` [Example 145, (S)-2-(tert-butoxy)-2-(4-(4,4-dimethylpiperidin-1-yl)-5-(2-(4-fluoro-2-methylbenzyl)-1,2,3,4-tetrahydroisoquinolin-6-yl)-2-methyl-6-((5-methyl-1H-1,2,4-triazol-1-yl)methyl)pyridin-3-yl)acetic acid], the EC50 was less than 0.1 µM.

With `Cc1cc(F)ccc1CN1CCc2cc(-c3c(CNC(=O)C(=O)N(C)C)nc(C)c([C@H](OC(C)(C)C)C(=O)O)c3N3CCC(C)(C)CC3)ccc2C1` [Example 142, (S)-2-(tert-Butoxy)-2-(6-((2-(dimethylamino)-2-oxoacetamido)methyl)-4-(4,4-dimethylpiperidin-1-yl)-5-(2-(4-fluoro-2-methylbenzyl)-1,2,3,4-tetrahydroisoquinolin-6-yl)-2-methylpyridin-3-yl)acetic acid], the EC50 is less than 0.1 µM.

As to `Cc1nc(COCC2CCCC2)c(-c2ccc(OCCc3ccc(F)cc3)cc2)c(N2CCC(C)(C)CC2)c1[C@H](OC(C)(C)C)C(=O)O` [Example 13, (S)-2-(tert-Butoxy)-2-(6-((cyclopentylmethoxy)methyl)-4-(4,4-dimethylpiperidin-1-yl)-5-(4-(4-fluorophenethoxy)phenyl)-2-methylpyridin-3-yl)acetic acid], the EC50 was less than 0.1 µM.

Turning to `Cc1nc(COC(C)C)c(-c2ccc(OCCc3ccc(F)cc3)cc2)c(N2CCC(C)(C)CC2)c1[C@H](OC(C)(C)C)C(=O)O` [Example 9, (S)-2-(tert-Butoxy)-2-(4-(4,4-dimethylpiperidin-1-yl)-5-(4-(4-fluorophenethoxy)phenyl)-6-(isopropoxymethyl)-2-methylpyridin-3-yl)acetic acid], the EC50 is less than 0.1 µM.

With `Cc1nc(N2CCCCC2)c(-c2ccc(OCCc3ccc(F)cc3)cc2)c(N2CCC(C)(C)CC2)c1[C@H](OC(C)(C)C)C(=O)O` [Example 53, (S)-2-(tert-Butoxy)-2-(4-(4,4-dimethylpiperidin-1-yl)-5-(4-(4-fluorophenethoxy)phenyl)-2-methyl-6-(piperidin-1-yl)pyridin-3-yl)acetic acid], the EC50 is less than 0.1 µM.

In the case of `Cc1nc(CNCC2CCOCC2)c(-c2ccc(OCCc3ccc(F)cc3)cc2)c(N2CCC(C)(C)CC2)c1[C@H](OC(C)(C)C)C(=O)O` [Example 67, (S)-2-(tert-Butoxy)-2-(4-(4,4-dimethylpiperidin-1-yl)-5-(4-(4-fluorophenethoxy)phenyl)-2-methyl-6-((((tetrahydro-2H-pyran-4-yl)methyl)amino)methyl)pyridin-3-yl)acetic acid], the EC50 was less than 0.1 µM.

For `CC#Cc1nc(C)c([C@H](OC(C)(C)C)C(=O)O)c(N2CCC(C)(C)CC2)c1-c1ccc(OCCc2ccc(F)cc2)cc1` [Example 163, (S)-2-(tert-butoxy)-2-(4-(4,4-dimethylpiperidin-1-yl)-5-(4-(4-fluorophenethoxy)phenyl)-2-methyl-6-(prop-1-yn-1-yl)pyridin-3-yl)acetic acid], the EC50 was less than 0.1 µM.

Regarding `Cc1cccc(Cl)c1CN1CCc2cc(-c3c(CN4CCCC4)nc(C)c([C@H](OC(C)(C)C)C(=O)O)c3N3CCC(C)(C)CC3)ccc2C1` [Example 176, (S)-2-(tert-Butoxy)-2-(5-(2-(2-chloro-6-methylbenzyl)-1,2,3,4-tetrahydroisoquinolin-6-yl)-4-(4,4-dimethylpiperidin-1-yl)-2-methyl-6-(pyrrolidin-1-ylmethyl)pyridin-3-yl)acetic acid], the EC50 is less than 0.1 µM.

With `Cc1cc(F)ccc1CN1CCc2cc(-c3c(CN4CCN(C)CC4)nc(C)c([C@H](OC(C)(C)C)C(=O)O)c3N3CCC(C)(C)CC3)ccc2C1` [Example 136, (S)-2-(tert-Butoxy)-2-(4-(4,4-dimethylpiperidin-1-yl)-5-(2-(4-fluoro-2-methylbenzyl)-1,2,3,4-tetrahydroisoquinolin-6-yl)-2-methyl-6-((4-methylpiperazin-1-yl)methyl)pyridin-3-yl)acetic acid], the EC50 was less than 0.1 µM.

On to `CCOCCOCc1nc(C)c([C@H](OC(C)(C)C)C(=O)O)c(N2CCC(C)(C)CC2)c1-c1ccc(OCCc2ccc(F)cc2)cc1` [Example 10, (S)-2-(tert-Butoxy)-2-(4-(4,4-dimethylpiperidin-1-yl)-6-((2-ethoxyethoxy)methyl)-5-(4-(4-fluorophenethoxy)phenyl)-2-methylpyridin-3-yl)acetic acid], for which the EC50 was less than 0.1 µM.

`CC1(C)CCN(c2c([C@H](OC(C)(C)C)C(=O)O)cnc(CCl)c2-c2ccc(OCCc3ccc(F)cc3)cc2)CC1` [Example 184, (S)-2-(tert-Butoxy)-2-(6-(chloromethyl)-4-(4,4-dimethylpiperidin-1-yl)-5-(4-(4-fluorophenethoxy)phenyl)pyridin-3-yl)acetic acid]: the EC50 is less than 0.1 µM.

For `Cc1nc(CNCc2ccncc2)c(-c2ccc(OCCc3ccc(F)cc3)cc2)c(N2CCC(C)(C)CC2)c1[C@H](OC(C)(C)C)C(=O)O` [Example 74, (S)-2-(tert-Butoxy)-2-(4-(4,4-dimethylpiperidin-1-yl)-5-(4-(4-fluorophenethoxy)phenyl)-2-methyl-6-(((pyridin-4-ylmethyl)amino)methyl)pyridin-3-yl)acetic acid], the EC50 was less than 0.1 µM.

Regarding `Cc1nc(CF)c(-c2ccc(OCCc3ccc(F)cc3)cc2)c(N2CCC(C)(C)CC2)c1[C@H](OC(C)(C)C)C(=O)O` [Example 5, (S)-2-(tert-Butoxy)-2-(4-(4,4-dimethylpiperidin-1-yl)-6-(fluoromethyl)-5-(4-(4-fluorophenethoxy)phenyl)-2-methylpyridin-3-yl)acetic acid], the EC50 is less than 0.1 µM.

For `Cc1nc(/C=C\COC(C)C)c(-c2ccc(OCCc3ccc(F)cc3)cc2)c(N2CCC(C)(C)CC2)c1[C@H](OC(C)(C)C)C(=O)O` [Example 55, (S,Z)-2-(tert-Butoxy)-2-(4-(4,4-dimethylpiperidin-1-yl)-5-(4-(4-fluorophenethoxy)phenyl)-6-(3-isopropoxyprop-1-en-1-yl)-2-methylpyridin-3-yl)acetic acid], the EC50 is less than 0.1 µM.

Take `Cc1nc(COCc2cccc(Cl)c2)c(-c2ccc(OCCc3ccc(F)cc3)cc2)c(N2CCC(C)(C)CC2)c1[C@H](OC(C)(C)C)C(=O)O` [Example 16, (S)-2-(tert-Butoxy)-2-(6-(((3-chlorobenzyl)oxy)methyl)-4-(4,4-dimethylpiperidin-1-yl)-5-(4-(4-fluorophenethoxy)phenyl)-2-methylpyridin-3-yl)acetic acid]: the EC50 is less than 0.1 µM.

As for `CO/C=C/c1nc(C)c([C@H](OC(C)(C)C)C(=O)O)c(N2CCC(C)(C)CC2)c1-c1ccc(OCCc2ccc(F)cc2)cc1` [Example 57, (S,E)-2-(tert-Butoxy)-2-(4-(4,4-dimethylpiperidin-1-yl)-5-(4-(4-fluorophenethoxy)phenyl)-6-(2-methoxyvinyl)-2-methylpyridin-3-yl)acetic acid], the EC50 was less than 0.1 µM.

`Cc1nc(CNc2ccccc2)c(-c2ccc(OCCc3ccc(F)cc3)cc2)c(N2CCC(C)(C)CC2)c1[C@H](OC(C)(C)C)C(=O)O` [Example 73, (S)-2-(tert-Butoxy)-2-(4-(4,4-dimethylpiperidin-1-yl)-5-(4-(4-fluorophenethoxy)phenyl)-2-methyl-6-((phenylamino)methyl)pyridin-3-yl)acetic acid]: the EC50 was less than 0.1 µM.

The same assay, now with this note: Human immunodeficiency virus 1, MT2, 120 h, read-out: EC50 μM.
On to `CC1(C)CCN(c2c([C@H](OC(C)(C)C)C(=O)O)cnc(CCl)c2-c2ccc(OCCc3ccc(F)cc3)cc2)CC1` [Example 184, (S)-2-(tert-Butoxy)-2-(6-(chloromethyl)-4-(4,4-dimethylpiperidin-1-yl)-5-(4-(4-fluorophenethoxy)phenyl)pyridin-3-yl)acetic acid], for which the EC50 is 0.04 µM.

With `CO/C=C/c1nc(C)c([C@H](OC(C)(C)C)C(=O)O)c(N2CCC(C)(C)CC2)c1-c1ccc(OCCc2ccc(F)cc2)cc1` [Example 57, (S,E)-2-(tert-Butoxy)-2-(4-(4,4-dimethylpiperidin-1-yl)-5-(4-(4-fluorophenethoxy)phenyl)-6-(2-methoxyvinyl)-2-methylpyridin-3-yl)acetic acid], the EC50 amounted to 0.012 µM.
